SMILES strings stand for the structures. pIC50: −log10 of the molar value.

This note sets out measurements from US8563741B2, “CDK inhibitors containing a zinc binding moiety” (Curis, Inc., priority 2007, dated 2013).

The subject of one series is HDAC. Nature of the series: HDAC fluorimetric assay kit (AK-500, Biomol), HeLa nuclear extract. It counts as biochemical. As to the method:
HDAC inhibitors were screened using an HDAC fluorimetric assay kit (AK-500, Biomol, Plymouth Meeting, Pa.). […] Each assay was setup as follows: Defrosted all kit components and kept on ice until use. Diluted HeLa nuclear extract 1:29 in Assay Buffer (50 mM Tris/Cl, pH 8.0, 137 mM NaCl, 2.7 mM KCl, 1 mM MgCl2). Prepared dilutions of Trichostatin A (TSA, positive control) and tested compounds in assay buffer (5× of final concentration). Diluted Fluor de LysTM Substrate in assay buffer to 100 uM (50 fold=2× final). Diluted Fluor de LysTM developer concentrate 20-fold (e.g. 50 μl plus 950 μl Assay Buffer) in cold assay buffer. Second, diluted the 0.2 mM Trichostatin A 100-fold in the 1× Developer (e.g. 10 μl in 1 ml; final Trichostatin A concentration in the 1× Developer=2 μM; final concentration after addition to HDAC/Substrate reaction=1 μM). Added Assay buffer, diluted trichostatin A or test inhibitor to appropriate wells of the microtiter plate. Added diluted HeLa extract or other HDAC sample to all wells except for negative controls. Allowed diluted Fluor de LysTM Substrate and the samples in the microtiter plate to equilibrate to assay temperature (e.g. 25 or 37° C. Initiated HDAC reactions by adding diluted substrate (25 μl) to each well and mixing thoroughly. Allowed HDAC reactions to proceed for 1 hour and then stopped them by addition of Fluor de LysTM Developer (50 μl). Incubated plate at room temperature (25° C.) for 10-15 min. Read samples in a microtiter-plate reading fluorimeter capable of excitation at a wavelength in the range 350-380 nm and detection of emitted light in the range 440-460 nm.

For the next series, the target named is T1, CDK2/cyclinE (Homo sapiens, UniProt P24941).
T1 construct: C-terminal 6His-tagged, recombinant full-length CDK2 (MW=34 kDa); 6His (C); made in house; host or cells: Sf21 cells (baculovirus)
Nature of the series: CDK activity assay with p33 ATP, CDK2/cyclinE. The following applies: 1 μM ATP. Format: biochemical. The protocol: CDK2/cyclinE (Accession Number for CDK2; EMBL M68520, for cyclinE1; GenBank NM_001238):
C-terminal 6His-tagged, recombinant full-length CDK2 (MW=34 kDa) in complex with N-terminal GST-tagged, recombinant full-length cyclinE1 (MW=74 kDa) were expressed with baculovirus system in Sf21 cells. Recombinant proteins were purified using Ni2+/NTA agarose and the purity of recombinant protein complex was measured to be around 76% by SDS-PAGE and Coomassie blue staining. Specific Activity of recombinant CDK2/cyclinE was 1336 U/mg, where one unit of CDK2/cylinE1 activity is defined as 1 nmol phosphate incorporated into 0.1 mg/ml histone H1 per minute at 30° C. with a final ATP concentration of 100 μM. Enzyme was stored with concentration of 0.1 mg/ml in 50 mM Tris/HCl pH 7.5, 150 mM NaCl, 0.03% Brij-35, 0.1 mM EGTA, 0.2 mM PMSF, 1 mM benzamidine, 0.1% 2-mercaptoethanol, 270 mM sucrose.

As for `CC(C)(C)c1cnc(CSc2cnc(NC(=O)c3ccc(OCCCCCC(=O)NO)cc3)s2)o1` [Compound 25, N-(5-((5-tert-butyloxazol-2-yl)methylthio)thiazol-2-yl)-4-(6-(hydroxyamino)-6-oxohexyloxy)benzamide], the pIC50 in the series with HDAC is 6.00 to 7.00; on CDK2/cyclinE, greater than 7.00.

As for `CC(C)(C)c1cnc(CSc2cnc(NC(=O)c3cccc(/C=C/C(=O)NO)c3)s2)o1` [Compound 19, (E)-N-(5-((5-tert-butyloxazol-2-yl)methylthio)-thiazol-2-yl)-3-(3-(hydroxylamino)-3-oxoprop-1-enyl)benzamide], the values for the pIC50 in the series with HDAC and on CDK2/cyclinE were 6.00 to 7.00 and greater than 7.00, respectively.

As for `CC(C(=O)Nc1ncc(SCc2ncc(C(C)(C)C)o2)s1)c1ccc(OCCCC(=O)NO)cc1` (centres unmarked) [Compound 31, 4-(4-(1-(5-((5-Tert-butyloxazol-2-yl)methylthio)-thiazol-2-ylamino)-1-oxopropan-2-yl)phenoxy)-N-hydroxybutanamide], the pIC50 in the series with HDAC and against CDK2/cyclinE was greater than 7.00 throughout.

Turning to `CC(C)(C)c1cnc(CSc2cnc(NC(=O)c3ccc(/C=C/C(=O)NO)cc3)s2)o1` [Compound 18, (E)-N-(5-((5-tert-butyloxazol-2-yl)methylthio)thiazol-2-yl)-4-(3-(hydroxylamino)-3-oxoprop-1-enyl)benzamide], the pIC50 in the series with HDAC was 6.00 to 7.00; at CDK2/cyclinE, greater than 7.00.

In turn, `CC(C)(C)c1cnc(CSc2cnc(NC(=O)C3CCN(CCCCCCC(=O)NO)CC3)s2)o1` [Compound 4, N-(5-((5-tert-butyloxazol-2-yl)methylthio)thiazol-2-yl)-1-(7-(hydroxyamino)-7-oxoheptyl)piperidine-4-carboxamide] came in with a melting point of 113 to 115 °C. Besides, in the series on HDAC, the pIC50 was 6.00 to 7.00. Besides, on CDK2/cyclinE, the pIC50 was greater than 7.00.

`CC(C)(C)c1cnc(CSc2cnc(NC(=O)C3CCN(CCCCCC(=O)NO)CC3)s2)o1` [Compound 3, N-(5-((5-tert-butyloxazol-2-yl)methylthio)thiazol-2-yl)-1-(6-(hydroxyamino)-6-oxohexyl)piperidine-4-carboxamide] came in with a melting point of 127 to 130 °C. In addition, the pIC50 in the series with HDAC was 5.00 to 6.00. The compound also showed a pIC50 on CDK2/cyclinE greater than 7.00.

In the case of `CC(C)(C)c1cnc(CSc2cnc(NC(=O)c3ccc(OCCCC(=O)NO)cc3)s2)o1` [Compound 39], the pIC50 is 6.00 to 7.00 in the series with HDAC and greater than 7.00 on CDK2/cyclinE.

As for `CC(C)(C)c1cnc(CSc2cnc(NS(=O)(=O)c3ccc(C(=O)NO)cc3)s2)o1` [Compound 33, 4-(N-(5-((5-tert-butyloxazol-2-yl)methylthio)-thiazol-2-yl)sulfamoyl)-N-hydroxybenzamide], in the series on HDAC, the pIC50 was 6.00 to 7.00. Besides, on CDK2/cyclinE, the “CDK2/cyclinE IC50” value is given as “No”.

For the compound `CC(Sc1cnc(NC(=O)Cc2ccc(OCCCC(=O)NO)cc2)s1)c1ncc(C(C)(C)C)o1` (centres unmarked) [Compound 26, 4-(4-(2-(5-(1-(5-Tert-butyloxazol-2-yl)ethylthio)-thiazol-2-ylamino)-2-oxoethyl)phenoxy)-N-hydroxybutanamide], the pIC50 with HDAC was 6.00 to 7.00; against CDK2/cyclinE it was greater than 7.00.

Take `CC(C)(C)c1cnc(CSc2cnc(NC(=O)c3ccc(OCCCCCCC(=O)NO)cc3)s2)o1` [Compound 40]: the pIC50 in the series with HDAC is 6.00 to 7.00; against CDK2/cyclinE, greater than 7.00.

The compound `CC(C)(C)c1cnc(CSc2cnc(NC(=O)CCCNCCCCCC(=O)NO)s2)o1` [Compound 16, 6-(4-(5-((5-tert-butyloxazol-2-yl)methylthio)-thiazol-2-ylamino)-4-oxobutylamino)-N-hydroxyhexanamide] gave a pIC50 in the series with HDAC of 6.00 to 7.00.

As to `CC(C)(C)c1cnc(CSc2cnc(NC(=O)Cc3ccc(OCCCCCC(=O)NO)cc3)s2)o1` [Compound 11], the pIC50 was 6.00 to 7.00 in the series on HDAC and greater than 7.00 against CDK2/cyclinE.

On to `CC(C)(C)c1cnc(CSc2cnc(NC(=O)Oc3ccc(OCCCC(=O)NO)cc3)s2)o1` [Compound 28, 4-(4-(hydroxyamino)-4-oxobutoxy)phenyl-5-((5-tert-butyloxazol-2-yl)methylthio)thiazol-2-ylcarbamate], for which the pIC50 on CDK2/cyclinE is greater than 7.00.

As for `CC(C)(C)c1cnc(CSc2cnc(NS(=O)(=O)c3cccc(/C=C/C(=O)NO)c3)s2)o1` [Compound 32, (E)-3-(3-(N-(5-((5-tert-butyloxazol-2-yl)methylthio)thiazol-2-yl)sulfamoyl)phenyl)-N-hydroxyacrylamide], the pIC50 is greater than 7.00 in the series on HDAC and 5.00 to 6.00 against CDK2/cyclinE.

Consider `CC(C)(C)c1cnc(CSc2cnc(NC(=O)CCCNCCCCCCC(=O)NO)s2)o1` [Compound 17, 7-(4-(5-((5-tert-butyloxazol-2-yl)methylthio)-thiazol-2-ylamino)-4-oxobutylamino)-N-hydroxyheptanamide], for which the results for the pIC50 in the series on HDAC and against CDK2/cyclinE were 6.00 to 7.00 and greater than 7.00, respectively.

Consider `CC(C)(C)c1cnc(CSc2cnc(NC(=O)Nc3ccc(OCCCC(=O)NO)cc3)s2)o1` [Compound 29, 4-(4-(3-(5-((5-Tert-butyloxazol-2-yl)methylthio)-thiazol-2-yl)ureido)phenoxy)-N-hydroxybutanamide], for which the negative logarithm of the IC50 (pIC50) in the series on HDAC was 6.00 to 7.00; at CDK2/cyclinE it was greater than 7.00.

As for `CC(C)(C)c1cnc(CSc2cnc(NCC3CCN(c4ncc(C(=O)NO)cn4)CC3)s2)o1` [Compound 21, 2-(4-((5-((5-tert-butyloxazol-2-yl)methylthio)-thiazol-2-ylamino)methyl)piperidin-1-yl)-N-hydroxypyrimidine-5-carboxamide], the pIC50 with HDAC and at CDK2/cyclinE was greater than 7.00 in each case.

`CC(C)(C)c1cnc(CSc2cnc(NC(=O)c3ccc(OCCCCC(=O)NO)cc3)s2)o1` [Compound 24, N-(5-((5-tert-butyloxazol-2-yl)methylthio)thiazol-2-yl)-4-(5-(hydroxyamino)-5-oxopentyloxy)benzamide] had a pIC50 at CDK2/cyclinE greater than 7.00.

As to `CC(C)(C)c1cnc(CSc2cnc(NC(=O)C(C)(C)c3ccc(OCCCC(=O)NO)cc3)s2)o1` [Compound 27, 4-(4-(1-(5-((5-Tert-butyloxazol-2-yl)methylthio)-thiazol-2-ylamino)-2-methyl-1-oxopropan-2-yl)phenoxy)-N-hydroxybutanamide], the values for the pIC50 in the series with HDAC and against CDK2/cyclinE were 6.00 to 7.00 and greater than 7.00, respectively.

The compound `CC(C)(C)c1cnc(CSc2nnc(NC(=O)CCCCCCC(=O)NO)s2)o1` [Compound 22, N^1-(5-((5-tert-butyloxazol-2-yl)methylthio)-1,3,4-thiadiazol-2-yl)-N^8-hydroxyoctanediamide] showed a negative logarithm of the IC50 (pIC50) at CDK2/cyclinE of 5.00 to 6.00.

Regarding `CC(C)(C)c1cnc(CSc2nnc(NC(=O)Cc3ccc(OCCCC(=O)NO)cc3)s2)o1` [Compound 30, 4-(4-(2-(5-((5-tert-butyloxazol-2-yl)methylthio)-1,3,4-thiadiazol-2-ylamino)-2-oxoethyl)phenoxy)-N-hydroxybutanamide], the pIC50 was 6.00 to 7.00 with HDAC and 5.00 to 6.00 at CDK2/cyclinE.

Regarding `CC(C)(C)c1cnc(CSc2cnc(NC(=O)Cc3ccc(OCCCCC(=O)NO)cc3)s2)o1` [Compound 10, 5-(4-(2-(5-((5-tert-butyloxazol-2-yl)methylthio)thiazol-2-ylamino)-2-oxoethyl)phenoxy)-N-hydroxypentanamide], the figures for the pIC50 with HDAC and at CDK2/cyclinE were 6.00 to 7.00 and greater than 7.00, respectively.

In the series with HDAC, `CC(C)(C)c1cnc(CSc2cnc(NS(=O)(=O)c3ccc(/C=C/C(=O)NO)cc3)s2)o1` [Compound 34, (E)-3-(4-(N-(5-((5-tert-butyloxazol-2-yl)methylthio)-thiazol-2-yl)sulfamoyl)phenyl)-N-hydroxyacrylamide] gave a pIC50 greater than 7.00. For the same compound, the “CDK2/cyclinE IC50” value at CDK2/cyclinE was “No”.
